Our source for the inhibition values is patent publication US9975903B2, “Condensed heterocyclic compound” (Takeda Pharmaceutical Company Limited, priority 2014, dated 2018).

Structures can show the parent of a compound that is named as a salt.

T1 sequence (P98073 whole entry): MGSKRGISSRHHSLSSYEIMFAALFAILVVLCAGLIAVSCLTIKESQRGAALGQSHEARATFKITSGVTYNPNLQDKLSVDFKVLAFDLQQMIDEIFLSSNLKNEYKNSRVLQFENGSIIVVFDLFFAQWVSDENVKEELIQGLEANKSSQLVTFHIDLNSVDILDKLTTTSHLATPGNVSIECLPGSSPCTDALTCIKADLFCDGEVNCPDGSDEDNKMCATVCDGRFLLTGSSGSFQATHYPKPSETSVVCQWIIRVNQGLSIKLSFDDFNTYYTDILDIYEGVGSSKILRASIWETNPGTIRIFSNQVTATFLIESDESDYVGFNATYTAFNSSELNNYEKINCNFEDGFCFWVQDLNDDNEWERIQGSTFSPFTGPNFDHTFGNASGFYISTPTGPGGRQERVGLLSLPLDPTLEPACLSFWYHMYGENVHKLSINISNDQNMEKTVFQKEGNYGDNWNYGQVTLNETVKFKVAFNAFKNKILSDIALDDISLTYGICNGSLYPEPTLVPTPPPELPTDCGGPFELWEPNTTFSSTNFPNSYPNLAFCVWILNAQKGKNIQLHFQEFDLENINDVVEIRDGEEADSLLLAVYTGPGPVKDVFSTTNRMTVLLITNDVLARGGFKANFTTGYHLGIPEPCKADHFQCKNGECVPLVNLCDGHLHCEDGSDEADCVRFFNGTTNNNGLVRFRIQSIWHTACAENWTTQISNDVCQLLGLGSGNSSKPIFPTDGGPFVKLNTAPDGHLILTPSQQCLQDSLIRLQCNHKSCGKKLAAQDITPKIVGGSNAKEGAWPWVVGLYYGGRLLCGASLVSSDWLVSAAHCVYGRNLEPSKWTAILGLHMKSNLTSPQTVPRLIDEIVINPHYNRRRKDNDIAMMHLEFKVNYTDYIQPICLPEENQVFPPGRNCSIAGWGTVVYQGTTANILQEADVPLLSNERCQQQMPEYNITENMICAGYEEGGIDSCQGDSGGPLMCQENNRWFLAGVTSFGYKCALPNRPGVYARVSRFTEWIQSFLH

One assay has as its target T1, Human recombinant enteropeptidase (Homo sapiens, UniProt P98073).
T1 construct: purchased ITSI-Biosciences LLC #REN-260
The assay is described as follows: Human enteropeptidase inhibitory activity (Test Example 1). The class given is biochemical. The conditions noted are these: 3.3 μM test compound; inhibition rate from fluorescence intensity at 2 hours after the start of the reaction; read-out: 3.3 μM Inhibition. As for the experimental part:
Human recombinant enteropeptidase (#REN-260, ITSI-Biosciences LLC) was diluted with an assay buffer (50 mM Tricine, pH 8.0, 0.01 (w/v) %, Tween 20, 10 mM CaCl2) to prepare a 24 mU/mL enzyme solution. Subsequently, 5FAM-Abu-Gly-Asp-Asp-Asp-Lys-Ile-Val-Gly-Gly-Lys(CPQ2)-Lys-Lys-NH2 (SEQ ID NO: 1, purity: 97.2%, CPC Scientific Inc.) was diluted with the assay buffer to prepare a 2.1 μM substrate solution. A test compound is dissolved in DMSO into a 1 mM solution, and the solution was diluted by 100-fold with the assay buffer to give a compound solution. To a 384-well black plate (#784076, Greiner Bio-One), 5 μL of the compound solution and 5 μL of the substrate solution were added and mixed, and 5 μL of the enzyme solution was then added to the mixture, followed by mixing to start the reaction. The fluorescence intensity was measured with a fluorescence plate reader EnVision (The Perkin-Elmer Corp.) at an excitation wavelength of 485 nm and a fluorescence wavelength of 535 nm. The same reaction as above except that the test compound was not contained was performed (test compound non-addition group). Furthermore, the same reaction as above except that the test compound and the enzyme were not contained was performed (control group). The inhibition rate was calculated using the fluorescence intensity at 2 hours after the start of the reaction by the following expression: Inhibition rate (%)=(1−((fluorescence intensity of test compound addition group)−(fluorescence intensity of control group))/((fluorescence intensity of test compound non-addition group)−(fluorescence intensity of control group)))×100
By inhibition is commonly meant the drop in the measured response relative to a control, in per cent. Consider `N=C(N)Nc1ccc2c(c1)CCc1c(CCC(=O)N[C@@H](CC(=O)O)C(=O)O)cccc1OC2=O` [Example 57, N-(3-(9-Carbamimidamido-6-oxo-11,12-dihydro-6H-dibenzo[b,f]oxocin-1-yl)propanoyl)-L-aspartic acid trifluoroacetate], for which the inhibition at 3.3 µM was 100%.
`N=C(N)Nc1ccc2c(c1)CCc1ccccc1OC2=O` [Example 58, 1-(6-Oxo-11,12-dihydro-6H-dibenzo[b,f]oxocin-9-yl)guanidine trifluoroacetate]: the inhibition at 3.3 µM is 55%.
Regarding `N=C(N)c1ccc2c(c1)CCc1cc(CCC(=O)N[C@@H](CC(=O)O)C(=O)O)ccc1C(=O)O2` [Example 60, N-(3-(2-carbamimidoyl-6-oxo-11,12-dihydro-6H-dibenzo[b,f]oxocin-9-yl)propanoyl)-L-aspartic acid], the inhibition at 3.3 µM is 59%.
In the case of `N=C(N)c1ccc2c(c1)CCc1c(CCC(=O)N[C@@H](CC(=O)O)C(=O)O)cccc1C(=O)O2` [Example 61, N-(3-(2-Carbamimidoyl-6-oxo-11,12-dihydro-6H-dibenzo[b,f]oxocin-10-yl)propanoyl)-L-aspartic acid trifluoroacetate], the inhibition at 3.3 µM amounted to 72%.
The same measure, in the same setting: the same measure for `N=C(N)c1ccc2c(c1)CCc1c(C(=O)N[C@@H](CC(=O)O)C(=O)O)cccc1C(=O)O2` [Example 62, N-((2-Carbamimidoyl-6-oxo-11,12-dihydro-6H-dibenzo[b,f]oxocin-10-yl)carbonyl)-L-aspartic acid trifluoroacetate]: 84%; for `N=C(N)c1ccc2c(c1)CCc1cc(C(=O)N[C@@H](CC(=O)O)C(=O)O)ccc1C(=O)O2` [Example 63, N-((2-carbamimidoyl-6-oxo-11,12-dihydro-6H-dibenzo[b,f]oxocin-9-yl)carbonyl)-L-aspartic acid]: 93%.
Turning to `N=C(N)Nc1ccc2c(c1)CCCOc1c(cccc1C(=O)N(CCC(=O)O)CC(=O)O)OC2=O` [Example 64, N-((10-carbamimidamido-13-oxo-6,7,8,13-tetrahydro-dibenzo[b,f] [1,4]dioxecin-4-yl)carbonyl)-N-(carboxymethyl)-beta-alanine], the inhibition at 3.3 µM amounted to 101%.
Take `N=C(N)Nc1ccc2c(c1)CCCOc1c(cccc1C(=O)N(CC(=O)O)[C@@H](CC(N)=O)C(=O)O)OC2=O` [Example 65, N^2-((10-Carbamimidamido-13-oxo-6,7,8,13-tetrahydrodibenzo[b,f][1,4]dioxecin-4-yl)carbonyl)-N^2-(carboxymethyl)-L-asparagine]: the inhibition at 3.3 µM stood at 100%.
Take `N=C(N)Nc1ccc2c(c1)CCCOc1c(cc(Cl)cc1C(=O)N[C@@H](CC(=O)O)C(=O)O)OC2=O` [Example 66, N-((10-carbamimidamido-2-chloro-13-oxo-6,7,8,13-tetrahydro-dibenzo[b,f] [1,4]dioxecin-4-yl)carbonyl)-L-aspartic acid]: the inhibition at 3.3 µM was found to be 101%.
`COc1cc2c(c(C(=O)N[C@@H](CC(=O)O)C(=O)O)c1)CCCCc1cc(NC(=N)N)ccc1C(=O)O2` [Example 67, N-((3-Carbamimidamido-11-methoxy-14-oxo-5,7,8,14-tetrahydro-6H-dibenzo[b,h]oxecin-9-yl)carbonyl)-L-aspartic acid]: the inhibition at 3.3 µM was determined as 100%.
In the case of `N=C(N)Nc1ccc2c(c1)CCCOc1ccccc1OC2=O` [Example 68, 1-(13-Oxo-6,7,8,13-tetrahydrodibenzo[b,f][1,4]dioxecin-10-yl)guanidine trifluoroacetate], the inhibition at 3.3 µM turned out to be 83%.
Same read-out and setting: the same measure for `N=C(N)c1ccc2c(c1)CCCCc1cc(C(=O)N[C@@H](CC(=O)O)C(=O)O)ccc1C(=O)O2` [Example 69, N-((10-Carbamimidoyl-14-oxo-5,7,8,14-tetrahydro-6H-dibenzo[b,h]oxecin-3-yl)carbonyl)-L-aspartic acid trifluoroacetate]: 100%; for `Cc1cc2c(c(C(=O)N[C@@H](CC(=O)O)C(=O)O)c1)OCCCc1cc(NC(=N)N)ccc1C(=O)O2` [Example 70, N-((10-carbamimidamido-2-methyl-13-oxo-6,7,8,13-tetrahydro-dibenzo[b,f] [1,4]dioxecin-4-yl)carbonyl)-L-aspartic acid]: 102%.
In the case of `N=C(N)Nc1ccc2c(c1)CCCOc1c(cccc1C(=O)N(CC(=O)O)Cc1cccc(C(=O)O)c1)OC2=O` [Example 71, 3-((((10-Carbamimidamido-13-oxo-6,7,8,13-tetrahydrodibenzo[b,f][1,4]dioxecin-4-yl)carbonyl) (carboxymethyl)amino)methyl)benzoic acid], the inhibition at 3.3 µM worked out at 100%.
Still for that read-out and setting: the same measure for `Cc1cc2c(c(C(=O)N[C@@H](CC(=O)O)C(=O)O)c1)CCCCc1cc(NC(=N)N)ccc1C(=O)O2` [Example 72, N-((3-carbamimidamido-11-methyl-14-oxo-5,7,8,14-tetrahydro-6H-dibenzo[b,h]oxecin-9-yl)carbonyl)-L-aspartic acid]: 101%; for `N=C(N)Nc1ccc2c(c1)CCCc1cc(C(=O)N[C@@H](CC(=O)O)C(=O)O)ccc1OC2=O` [Example 73, N-((9-carbamimidamido-6-oxo-6,11,12,13-tetrahydro-dibenzo[b,g]oxonin-2-yl)carbonyl)-L-aspartic acid]: 100%.
On to `N=C(N)Nc1ccc2c(c1)CCCCc1c(cccc1C(=O)NC(CC(=O)O)CC(=O)O)OC2=O` [Example 74, 3-(((3-carbamimidamido-14-oxo-5,7,8,14-tetrahydro-6H-dibenzo[b,h]oxecin-9-yl)carbony)amino)pentanedioic acid], for which the inhibition at 3.3 µM amounted to 101%.
Regarding `N=C(N)Nc1ccc2c(c1)CCCCCc1c(cccc1C(=O)N[C@@H](CC(=O)O)C(=O)O)OC2=O` [Example 76, N-((3-Carbamimidamido-15-oxo-5,6,7,8,9,15-hexahydrodibenzo[b,i]hexacycloundecin-10-yl)carbonyl)-L-aspartic acid], the inhibition at 3.3 µM is 101%.
In the case of `N=C(N)Nc1ccc2c(c1)CCCCCCc1c(cccc1C(=O)N[C@@H](CC(=O)O)C(=O)O)OC2=O` [Example 77, N-((3-Carbamimidamido-16-oxo-5,7,8,9,10,16-hexahydro-6H-dibenzo[b,j]oxacyclododecin-11-yl)carbonyl)-L-aspartic acid], the inhibition at 3.3 µM amounted to 99%.
In the case of `N=C(N)Nc1ccc2c(c1)CCCOc1ccc(CCC(=O)N[C@@H](CC(=O)O)C(=O)O)cc1OC2=O` [Example 78, N-(3-(10-carbamimidamido-13-oxo-6,7,8,13-tetrahydro-dibenzo[b,f] [1,4]dioxecin-2-yl)propanoyl) aspartic acid], the inhibition at 3.3 µM came to 93%.
In the case of `N=C(N)Nc1ccc2c(c1)OCCCc1c(CCC(=O)N[C@@H](CC(=O)O)C(=O)O)cccc1OC2=O` [Example 79, N-(3-(3-Carbamimidamido-14-oxo-7,8-dihydro-6H,14H-dibenzo[b,f][1,5]dioxecin-9-yl)propanoyl)-L-aspartic acid], the inhibition at 3.3 µM came to 101%.
As to `N=C(N)Nc1ccc2c(c1)CCCOc1cc(C(=O)N[C@@H](CC(=O)O)C(=O)O)ccc1OC2=O` [Example 81, N-((10-carbamimidamido-13-oxo-6,7,8,13-tetrahydro-dibenzo[b,f] [1,4]dioxecin-3-yl)carbonyl)-L-aspartic acid], the inhibition at 3.3 µM amounted to 101%.
With `N=C(N)Nc1ccc2c(c1)CCCCOc1c(cccc1C(=O)N[C@@H](CC(=O)O)C(=O)O)OC2=O` [Example 82, N-((11-carbamimidamido-14-oxo-7,8,9,14-tetrahydro-6H-dibenzo[b,f][1,4]dioxacycloundecin-4-yl)carbonyl)-L-aspartic acid], the inhibition at 3.3 µM is 102%.
For the compound `N=C(N)Nc1ccc2c(c1)CCCCc1c(CCC(=O)N[C@@H](CC(=O)O)C(=O)O)cccc1OC2=O` [Example 83, N-(3-(3-carbamimidamido-14-oxo-5,7,8,14-tetrahydro-6H-dibenzo[b,h]oxecin-9-yl)propanoyl)-L-aspartic acid], the inhibition at 3.3 µM came to 102%.
`N=C(N)Nc1ccc2c(c1)OCCCc1c(cccc1C(=O)N[C@@H](CC(=O)O)C(=O)O)OC2=O` [Example 84, N-((3-carbamimidamido-14-oxo-7,8-dihydro-6H,14H-dibenzo[b,f][1,5]dioxecin-9-yl)carbonyl)-L-aspartic acid]: the inhibition at 3.3 µM came to 101%.
As for `CN(C(=O)c1cccc2c1OCCCc1cc(NC(=N)N)ccc1C(=O)O2)[C@@H](CC(=O)O)C(=O)O` [Example 85, N-((10-carbamimidamido-13-oxo-6,7,8,13-tetrahydrodibenzo[b,f] [1,4]dioxecin-4-yl)carbonyl)-N-methyl-L-aspartic acid], the inhibition at 3.3 µM was determined as 101%.
As for `N=C(N)Nc1ccc2c(c1)CCCOc1c(cccc1C(=O)N[C@@H](CO)C(=O)O)OC2=O` [Example 86, N-((10-carbamimidamido-13-oxo-6,7,8,13-tetrahydro-dibenzo[b,f] [1,4]dioxecin-4-yl)carbonyl)-L-serine], the inhibition at 3.3 µM was found to be 101%.

Still in this assay, the particulars now being: read-out: 3.3 μM Inhibition.
In the case of `N=C(N)c1ccc2c(c1)CCc1ccccc1C(=O)O2` [Example 59, 6-Oxo-11,12-dihydro-6H-dibenzo[b,f]oxocine-2-carboximidamide trifluoroacetate], the inhibition at 3.3 µM was 57%.
